Where two headings read alike, the source gives them in different places.

Assay [1] relates to Parental BaF3 (+IL3). The experiment in a line: BaF3 cell proliferation, CCK-8 assay. Particulars: Mus musculus, BaF3, 72 h, read-out: IC50 (nM ± SD) Parental BaF3 (+IL3). (In general: Tetrazolium dyes change colour on reduction, which living cells bring about.)
Experimental: (§1) Murine BaF3 cells were purchased from JRCB cell bank. The BaF3 cell lines, which stably express natively-fused TRKA/B/C or various point mutants, were self-established by following previously described procedures. Briefly, NTRK genes were totally synthesized and cloned into pCDNA3.1(+) vectors (Invitrogen, Carlsbad, CA, USA). […] Stable strains were established by selection of cells 2 weeks post-transfection with 800 μg/mL G418 (Merck, Whitehouse Station, NJ) and further selection after the withdrawal of interleukin-3 (IL-3, R&D) for 2 weeks. All of BaF3 stable cell lines were verified by DNA sequencing, protein expression and anti-proliferation activity against positive drugs. […] All cells were grown at 37 °C in a humidified 5% CO2 atmosphere.
(§2) Cells were placed in 96-well plates (5000~8000/well) in complete medium. […] IC50 values were calculated by concentration-response curve fitting using GraphPad Prism 5.0 software. Each IC50 value is expressed as mean ± SD.
For assay [2], the system named is BaF3 MPRIP-TRKA. The experiment in a line: BaF3 cell proliferation, CCK-8 assay. Particulars: read-out: IC50 (nM ± SD) WT MPRIP-TRKA.
Experimental: as §1, §2
Assay [3] concerns BaF3 CD74-TRKA. The experiment in a line: BaF3 cell proliferation, CCK-8 assay. Particulars: Mus musculus, BaF3, 72 h, read-out: IC50 (nM ± SD) WT CD74-TRKA.
Experimental: as §1, §2
The test system of assay [4] is BaF3 QKI-TRKB. The experiment in a line: BaF3 cell proliferation, CCK-8 assay. The conditions noted are these: Mus musculus, BaF3, 72 h, read-out: IC50 (nM ± SD) WT QKI-TRKB.
Experimental: as §1, §2
Assay [5] relates to BaF3 ETV6-TRKB. The experiment in a line: BaF3 cell proliferation, CCK-8 assay. Particulars: Mus musculus, BaF3, 72 h, read-out: IC50 (nM ± SD) WT ETV6-TRKB.
Experimental: as §1, §2
Assay [6] deals with BaF3 EML4-TRKC. The experiment in a line: BaF3 cell proliferation, CCK-8 assay. Particulars: Mus musculus, BaF3, 72 h, read-out: IC50 (nM ± SD) WT EML4-TRKC.
Experimental: as §1, §2
The subject of assay [7] is BaF3 ETV6-TRKC. The experiment in a line: BaF3 cell proliferation, CCK-8 assay. The conditions noted are these: Mus musculus, BaF3, 72 h, read-out: IC50 (nM ± SD) WT ETV6-TRKC.
Experimental: as §1, §2
Assay [8] deals with BaF3 ETV6-TRKB-G639R. The experiment in a line: BaF3 cell proliferation, CCK-8 assay. Particulars: Mus musculus, BaF3, 72 h, read-out: IC50 (nM ± SD) Solvent Front ETV6-TRKB-G639R.
Experimental: as §1, §2
For assay [9], the system named is BaF3 ETV6-TRKC-G623R. The experiment in a line: BaF3 cell proliferation, CCK-8 assay. Particulars: Mus musculus, BaF3, 72 h, read-out: IC50 (nM ± SD) Solvent Front ETV6-TRKC-G623R.
Experimental: as §1, §2
Assay [10] deals with BaF3 CD74-TRKA-F589L. The experiment in a line: BaF3 cell proliferation, CCK-8 assay. Particulars: Mus musculus, BaF3, 72 h, read-out: IC50 (nM ± SD) Gatekeeper CD74-TRKA-F589L.
Experimental: as §1, §2
In assay [11] the test system is BaF3 ETV6-TRKB-F633L. The experiment in a line: BaF3 cell proliferation, CCK-8 assay. The conditions noted are these: Mus musculus, BaF3, 72 h, read-out: IC50 (nM ± SD) Gatekeeper ETV6-TRKB-F633L.
Experimental: as §1, §2
Assay [12] concerns BaF3 ETV6-TRKC-F617L. The experiment in a line: BaF3 cell proliferation, CCK-8 assay. Particulars: Mus musculus, BaF3, 72 h, read-out: IC50 (nM ± SD) Gatekeeper ETV6-TRKC-F617L.
Experimental: as §1, §2
Assay [13] has as its system BaF3 CD74-TRKA-G667C. The experiment in a line: BaF3 cell proliferation, CCK-8 assay. The conditions noted are these: Mus musculus, BaF3, 72 h, read-out: IC50 (nM ± SD) xDFG CD74-TRKA-G667C.
Experimental: as §1, §2
For assay [14], the system named is BaF3 ETV6-TRKB-G709C. The experiment in a line: BaF3 cell proliferation, CCK-8 assay. Particulars: Mus musculus, BaF3, 72 h, read-out: IC50 (nM ± SD) xDFG ETV6-TRKB-G709C.
Experimental: as §1, §2
Assay [15] deals with BaF3 ETV6-TRKC-G696C. The experiment in a line: BaF3 cell proliferation, CCK-8 assay. The conditions noted are these: Mus musculus, BaF3, 72 h, read-out: IC50 (nM ± SD) xDFG ETV6-TRKC-G696C.
Experimental: as §1, §2
For assay [16], the system named is TRKs-xDGF mutants TRKA-G667C, TRKB-G709C and TRKC-G696C in stable BaF3 models. The experiment in a line: Western blot of xDFG mutant TRK signal pathway (Figure S2). The conditions noted are these: even at 200 nM, 6 h. The format is cell-based, Murine. The protocol:
Cells were treated with various concentrations of each tested compound for a designated time. Then cells were lysed using 1 × SDS sample lysis buffer (CST recommended) with protease and phosphatase inhibitors. […] The films were blocked with 5% fat-free milk in TBS solution containing 0.5% Tween-20 for 4 h at room temperature, then incubated with the corresponding primary antibody (1:1000–1:200) overnight at 4 °C. After washing with TBST, HRP-conjugated secondary antibody was incubated for 2 h. The protein signals were visualized by ECL Western Blotting Detection Kit (Thermo Scientific, Waltham, MA, USA), and detected with Amersham Imager 600 system (GE, Boston, MA, USA).
In general terms: A western blot detects proteins with antibodies after separation by electrophoresis.

Assay [17] has as its system BaF3-CD74-TRKA-G667C cells. The experiment in a line: Apoptosis by flow cytometry (Annexin V / 7-AAD). The format is cell-based, Murine. Particulars: even at a concentration of 50 nM. The protocol: For analysis of the cell cycle, cells were harvested and washed twice with PBS after treatment for 24 h with indicated drugs or DMSO. […] The cells were then analyzed on a Guava easyCyte flow cytometer (Merck, Whitehouse Station, NJ, USA). For analysis of cell apoptosis, cells were harvested and washed twice with ice-cold PBS after treatment for 48 h with indicated drugs or DMSO. […] Finally, 400 μL of a 1 × BD binding buffer solution was replenished. The cells were then analyzed on a Guava easyCyte flow cytometer (Merck, Whitehouse Station, NJ, USA).
(In general: Flow cytometry measures light scatter and fluorescence of single cells or particles in a stream.)

In assay [18] the test system is BaF3 CD74-TRKA-G595R. The experiment in a line: BaF3 cell proliferation, CCK-8 assay. The conditions noted are these: Mus musculus, BaF3, 72 h, read-out: IC50 (nM ± SD) Solvent Front CD74-TRKA-G595R.
Experimental: as §1, §2
For assay [19], the system named is BaF3 cells with gatekeeper mutations (TRKA^F589L, TRKB^F663L, TRKC^F617L). The experiment in a line: BaF3 cell proliferation, summary over gatekeeper lines. The conditions noted are these: Mus musculus, BaF3, read-out: IC50 in cells with gatekeeper mutations.
Experimental: as §1, §2
Assay [20] has as its system BaF3 cells with solvent front mutations (TRKA^G595R, TRKB^G639R, TRKC^G623R). The experiment in a line: BaF3 cell proliferation, summary over solvent front lines. Particulars: Mus musculus, BaF3, read-out: IC50 range in cells with solvent front mutations.
Experimental: as §1, §2
The subject of assay [21] is TRKA^G667C mutant. The experiment in a line: Multi-target kinase inhibitors in BaF3 cell proliferation assays (Table S3). Format: cell-based, Murine.
For assay [22], the system named is wild-type TRKA/B/C or solvent-front mutations. The assay is described as above. Format: cell-based, Murine.

Broadly, the IC50 is the midpoint of a concentration-inhibition curve. For the compound `CN1CCN(c2ccc(C(=O)Nc3n[nH]c4ccc(Cc5cc(F)cc(F)c5)cc34)c(NC3CCOCC3)c2)CC1` [Entrectinib], the IC50 in assay [1] turned out to be 2340 ± 202 nM; in assay [2] (Mus musculus, BaF3, 72 h) it was 1.6 ± 0.4 nM; in [3], 4.4 ± 1 nM; in [4], 4.8 ± 1.6 nM; in assay [5], 8 ± 3.1 nM; in assay [6], 5.2 ± 1.6 nM. The IC50 in assay [7] is 7.8 ± 4.2 nM; in assay [8], 529 ± 130 nM; in [9] it was 617 ± 69.8 nM; in [10], 2.1 ± 0.3 nM; in [11] it was 13 ± 3.6 nM; in assay [12], 4.6 ± 2.8 nM. Moreover, the IC50 in assay [13] stood at 33.2 ± 3.2 nM; in [14], 285 ± 92.4 nM; in assay [15] it was 124 ± 60.4 nM.
Turning to `O=C(Nc1cnn2ccc(N3CCC[C@@H]3c3cc(F)ccc3F)nc12)N1CC[C@H](O)C1` [Larotrectinib], the “inhibition of the activation of TRKs-xDGF mutants” value in assay [16] is recorded as “limited inhibition”. The “effect on cell cycle or apoptosis” value in [17] is “little effect”. The IC50 in assay [1] was above 10000 nM; in assay [2] (Mus musculus, BaF3, 72 h), 4.8 ± 1.2 nM; in [3] it was 8 ± 0.8 nM; in [4], 11.4 ± 4.2 nM; in [5] it was 24 ± 4.2 nM; in assay [6], 21.7 ± 6.9 nM. The IC50 in assay [7] was found to be 11.2 ± 2.8 nM; in [18], 1110 ± 251 nM; in [8], 1900 ± 778 nM; in assay [9] it was 1270 ± 165 nM; in [10], 423 ± 92.6 nM; in assay [11], 1400 ± 214 nM. The IC50 in assay [12] was 513 ± 156 nM; in assay [13], 313 ± 48.5 nM; in [14], 1630 ± 821 nM; in assay [15], 769 ± 325 nM; in [19], above 0.423 µM.
As for `C[C@H]1CNC(=O)c2cnn3ccc(nc23)N[C@H](C)c2cc(F)ccc2O1` [Repotrectinib], the IC50 was determined as 906 ± 69 nM in assay [1]; 1.1 ± 0.2 nM in assay [2] (CCK-8, 72 h); 0.8 ± 0.7 nM in assay [4]; 2.3 ± 0.5 nM in [5]; 2.7 ± 1.6 nM in assay [6]; 2.1 ± 0.9 nM in assay [7]. Moreover, the IC50 in assay [9] came out at 14.6 ± 4.7 nM; in assay [11], 4.9 ± 2.2 nM; in [12], 2.1 ± 1.1 nM; in assay [14], 89.7 ± 38.8 nM; in [15] it was 42.9 ± 33.6 nM.
For the compound `C[C@@H]1CCc2ncc(F)cc2[C@H]2CCCN2c2ccn3ncc(c3n2)C(=O)N1` [Selitrectinib], in assay [16], the “inhibition of the activation of TRKs-xDGF mutants” value is reported as “limited inhibition”. Besides, the “effect on cell cycle or apoptosis” value in assay [17] is recorded as “little effect”. For the same compound, the IC50 in assay [1] is above 10000 nM; in assay [2] (Mus musculus, BaF3, 72 h), 1.1 ± 0.4 nM; in assay [3], 2.5 ± 0.2 nM; in assay [4] it was 1.5 ± 0.4 nM; in assay [5], 4.9 ± 1.4 nM; in assay [6], 2.1 ± 0.2 nM. Besides, the IC50 in assay [7] is 1.7 ± 1.1 nM; in assay [18] it was 13.6 ± 3.3 nM; in [8], 11.4 ± 2.2 nM; in assay [9], 9.6 ± 1.2 nM; in [10], 17.3 ± 2.2 nM; in assay [11] it was 55.8 ± 10.8 nM. For the same compound, the IC50 in [12] was 20.8 ± 7.9 nM; in assay [13] it was 66.3 ± 13 nM; in assay [14], 168 ± 73 nM; in assay [15], 98.4 ± 55 nM; in assay [20] it was 0.0094 to 0.0337 µM.
Consider `COc1cc2nccc(Oc3ccc(NC(=O)C4(C(=O)Nc5ccc(F)cc5)CC4)cc3)c2cc1OC` [cabozantinib], for which the “activity against TRKA^G667C mutant” value in [21] is “good activity”. For the same compound, in [22], the “activity against wild-type TRKA/B/C or solvent-front mutations” value is reported as “weak activity”.
Taken in the same sequence, the figures for `Cc1ccc(C(=O)Nc2ccc(CN3CCN(C)CC3)c(C(F)(F)F)c2)cc1C#Cc1cnc2cccnn12` [ponatinib] were “good activity” and “weak activity”.

Source of the values: publication PMC9570838, “JND4135, a New Type II TRK Inhibitor, Overcomes TRK xDFG and Other Mutation Resistance In Vitro and In Vivo” (Molecules, 2022).
